Assay results as given in ChEMBL document CHEMBL1144438, “Dipeptidyl peptidase IV inhibitors derived from beta-aminoacylpiperidines bearing a fused thiazole, oxazole, isoxazole, or pyrazole” (Bioorg Med Chem Lett, 2005).
Blank lines part the entries; values can stand above or below the compound they belong to.

How the values were obtained:
Dipeptidyl peptidase 9 = Dipeptidyl peptidase 9 (Homo sapiens, UniProt Q86TI2); experiment: Inhibitory concentration against human dipeptidylpeptidase 9
[1] = Plasma clearance of compound in rats dosed at 1 mg/kg i.v.; format: ADME, organism-based; parameters: dose 1 mg/kg, route intravenous; settings: rat, iv
[2] = Oral bioavailability of compound in rats dosed at 2 mg/kg p.o.; format: ADME, organism-based; settings: rat, in vivo
[3] = Half-life of compound in rats dosed at 1 mg/kg i.v.; format: ADME, organism-based; parameters: dose 1 mg/kg, route intravenous; settings: rat, in vivo, iv
Dipeptidyl peptidase 8 = Dipeptidyl peptidase 8 (Homo sapiens, UniProt Q6V1X1); experiment: Inhibitory concentration against human dipeptidylpeptidase 8
Dipeptidyl peptidase 8, sequence (Q6V1X1 whole entry): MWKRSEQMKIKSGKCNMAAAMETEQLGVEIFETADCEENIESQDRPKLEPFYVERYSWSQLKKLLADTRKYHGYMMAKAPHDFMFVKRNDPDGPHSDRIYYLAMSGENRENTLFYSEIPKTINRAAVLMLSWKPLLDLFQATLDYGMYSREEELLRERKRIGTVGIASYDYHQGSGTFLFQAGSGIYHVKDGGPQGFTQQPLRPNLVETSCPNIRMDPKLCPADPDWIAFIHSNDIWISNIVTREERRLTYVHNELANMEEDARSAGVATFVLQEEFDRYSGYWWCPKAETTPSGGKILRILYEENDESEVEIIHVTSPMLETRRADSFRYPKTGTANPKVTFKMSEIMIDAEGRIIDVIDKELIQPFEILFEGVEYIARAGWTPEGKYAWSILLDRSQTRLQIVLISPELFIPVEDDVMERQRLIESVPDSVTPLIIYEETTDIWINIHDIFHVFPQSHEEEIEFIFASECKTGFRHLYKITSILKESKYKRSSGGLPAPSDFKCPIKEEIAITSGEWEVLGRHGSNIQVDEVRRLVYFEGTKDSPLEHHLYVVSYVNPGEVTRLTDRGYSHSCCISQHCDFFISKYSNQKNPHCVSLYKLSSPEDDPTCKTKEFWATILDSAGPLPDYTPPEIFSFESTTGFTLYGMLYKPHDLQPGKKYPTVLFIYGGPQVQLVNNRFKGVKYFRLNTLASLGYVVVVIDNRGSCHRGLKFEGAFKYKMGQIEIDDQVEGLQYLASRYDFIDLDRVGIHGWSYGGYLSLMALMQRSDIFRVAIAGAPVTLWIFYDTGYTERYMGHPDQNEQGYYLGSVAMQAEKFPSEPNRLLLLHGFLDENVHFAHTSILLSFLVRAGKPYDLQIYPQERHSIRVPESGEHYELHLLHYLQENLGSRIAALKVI

Dipeptidyl peptidase 2 = Dipeptidyl peptidase 2 (Homo sapiens, UniProt Q9UHL4); experiment: Inhibitory concentration against human dipeptidylpeptidase VII (QPP)

Dipeptidyl peptidase 9, sequence (Q86TI2 whole entry): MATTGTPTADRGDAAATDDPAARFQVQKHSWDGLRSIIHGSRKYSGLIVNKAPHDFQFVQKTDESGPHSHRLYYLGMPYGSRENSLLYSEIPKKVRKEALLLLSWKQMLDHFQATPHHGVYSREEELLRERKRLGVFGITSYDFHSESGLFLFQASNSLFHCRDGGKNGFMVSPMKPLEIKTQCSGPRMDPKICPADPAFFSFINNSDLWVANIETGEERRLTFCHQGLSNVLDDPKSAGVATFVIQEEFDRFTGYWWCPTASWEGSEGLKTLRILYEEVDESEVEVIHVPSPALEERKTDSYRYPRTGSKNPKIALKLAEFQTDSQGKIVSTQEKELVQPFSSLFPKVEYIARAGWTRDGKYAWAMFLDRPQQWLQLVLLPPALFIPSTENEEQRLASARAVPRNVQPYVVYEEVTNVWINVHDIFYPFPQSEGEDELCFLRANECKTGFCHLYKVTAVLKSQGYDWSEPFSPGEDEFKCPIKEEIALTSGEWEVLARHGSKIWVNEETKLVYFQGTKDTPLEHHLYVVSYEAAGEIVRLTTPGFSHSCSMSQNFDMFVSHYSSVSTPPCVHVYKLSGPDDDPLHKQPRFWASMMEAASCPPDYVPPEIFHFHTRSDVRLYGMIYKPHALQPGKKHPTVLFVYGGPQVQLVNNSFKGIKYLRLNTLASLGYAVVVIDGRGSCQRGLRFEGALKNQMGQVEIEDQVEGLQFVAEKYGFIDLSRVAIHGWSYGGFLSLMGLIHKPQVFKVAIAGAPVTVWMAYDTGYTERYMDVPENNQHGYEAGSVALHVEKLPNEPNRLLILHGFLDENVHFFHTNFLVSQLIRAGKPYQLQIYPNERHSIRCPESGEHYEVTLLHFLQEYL

SMILES: Cn1nc2c(c1C(F)(F)F)CCN(C(=O)C[C@H](N)Cc1cc(F)ccc1F)C2
IC50 (Dipeptidyl peptidase 9): > 100 µM

SMILES: N[C@@H](CC(=O)N1CCc2sc(C(F)(F)F)nc2C1)Cc1cc(F)ccc1F
clearance [1]: 250 mL/min/kg
bioavailability [2]: 16%
half-life [3]: 2 h
IC50 (Dipeptidyl peptidase 9): > 100 µM

SMILES: Cn1nc(C(F)(F)F)c2c1CCN(C(=O)C[C@H](N)Cc1cc(F)ccc1F)C2
IC50 (Dipeptidyl peptidase 9): > 100 µM

SMILES: N[C@@H](CC(=O)N1CCc2n[nH]c(C(F)(F)C(F)(F)F)c2C1)Cc1cc(F)ccc1F (stereo in doubt; form 1)
IC50 (Dipeptidyl peptidase 9): > 100 µM

SMILES: N[C@@H](CC(=O)N1CCc2n[nH]c(C(F)(F)C(F)(F)F)c2C1)Cc1cc(F)ccc1F (stereo in doubt; form 2)
IC50 (Dipeptidyl peptidase 9): > 100 µM

SMILES: N[C@@H](CC(=O)N1CCc2c(c(C(F)(F)F)nn2CC(F)(F)F)C1)Cc1cc(F)ccc1F
IC50 (Dipeptidyl peptidase 9): > 100 µM

SMILES: N[C@@H](CC(=O)N1CCc2oc(C3CC3)nc2C1)Cc1cc(F)ccc1F
IC50 (Dipeptidyl peptidase 2): > 100 µM
IC50 (Dipeptidyl peptidase 9): > 100 µM

SMILES: N[C@@H](CC(=O)N1CCCc2n[nH]c(C(F)(F)F)c21)Cc1cc(F)ccc1F
IC50 (Dipeptidyl peptidase 8): > 100 µM
IC50 (Dipeptidyl peptidase 9): > 100 µM

SMILES: N[C@@H](CC(=O)N1CCc2noc(C(F)(F)F)c2C1)Cc1cc(F)ccc1F
IC50 (Dipeptidyl peptidase 8): > 100 µM
IC50 (Dipeptidyl peptidase 9): > 100 µM

SMILES: Cn1nc(C(F)(F)C(F)(F)F)c2c1CCN(C(=O)C[C@H](N)Cc1cc(F)ccc1F)C2
IC50 (Dipeptidyl peptidase 9): > 100 µM

SMILES: N[C@@H](CC(=O)N1CCc2nn(CC(F)(F)F)c(C(F)(F)F)c2C1)Cc1cc(F)ccc1F
IC50 (Dipeptidyl peptidase 8): > 100 µM
IC50 (Dipeptidyl peptidase 9): > 100 µM

SMILES: N[C@@H](CC(=O)N1CCc2c(noc2C(F)(F)F)C1)Cc1cc(F)ccc1F
IC50 (Dipeptidyl peptidase 2): > 100 µM

Other lines, results leading:

clearance [1]: 91 mL/min/kg
bioavailability [2]: 55%
half-life [3]: 3.3 h
SMILES: N[C@@H](CC(=O)N1CCc2sc(-c3ccc(F)cc3)nc2C1)Cc1cc(F)ccc1F

clearance [1]: 60 mL/min/kg
bioavailability [2]: 20%
half-life [3]: 1.5 h
SMILES: CS(=O)(=O)c1ccc(-c2nc3c(s2)CCN(C(=O)C[C@H](N)Cc2cc(F)ccc2F)C3)cc1

IC50 (Dipeptidyl peptidase 9): > 100 µM
SMILES: Cn1nc(-c2ccc(F)cc2)c2c1CCN(C(=O)C[C@H](N)Cc1cc(F)ccc1F)C2

IC50 (Dipeptidyl peptidase 8): > 100 µM
IC50 (Dipeptidyl peptidase 9): > 100 µM
SMILES: Cn1nc2c(c1C(F)(F)F)CN(C(=O)C[C@H](N)Cc1cc(F)ccc1F)CC2

IC50 (Dipeptidyl peptidase 9): > 100 µM
SMILES: Cn1nc2c(c1-c1ccc(F)cc1)CN(C(=O)C[C@H](N)Cc1cc(F)ccc1F)CC2

IC50 (Dipeptidyl peptidase 8): > 100 µM
IC50 (Dipeptidyl peptidase 9): > 100 µM
SMILES: Cn1nc2c(c1C(F)(F)C(F)(F)F)CN(C(=O)C[C@H](N)Cc1cc(F)ccc1F)CC2
